Patent publication US10227344B2, “CK2 inhibitors, compositions and methods thereof” (Polaris Pharmaceuticals, Inc., priority 2016, dated 2019)

What was measured:
Format in all cases: cell-based
NAMALWA = assay: Cancer cell panel, cell viability (resazurin): Burkitt's Lymphoma, NAMALWA; conditions: 72 hours, single agent, read-out: Example 3 IC50
MDA-MB-231 = assay: Cancer cell panel, cell viability (resazurin): Breast, MDA-MB-231; conditions: Homo sapiens; MDA-MB-231 (Breast), 72 hours, single agent; read-out: Example 3 IC50
Description: (§1) Cells were plated in 96-well plates and treated for 72 hours with a serially diluted CK2 inhibitor or anti-cancer drug or their combination. The suspension cell lines were treated right after plating, while the adherent cells were allowed to attach overnight prior to the start of the treatment.
(§2) Cell viability was determined by adding resazurin to cell cultures and measuring fluorescence with a plate reader. Relative cell viability was calculated by dividing the cell viability signal from a test sample by that of a non-treated control. […] Bliss Independence and Highest Single Agent models were used to determine if there is synergy, additivity or antagonism between the CK2 inhibitor and an anti-cancer drug.

Caki-1 = assay: Cancer cell panel, cell viability (resazurin): Renal, Caki-1; conditions: Homo sapiens; Caki-1 (Renal), 72 hours, single agent; read-out: Example 3 IC50
Panc-1 = assay: Cancer cell panel, cell viability (resazurin): Pancreatic, Panc-1; conditions: Homo sapiens; Panc-1 (Pancreatic), 72 hours, single agent; read-out: Example 3 IC50
PC3 = assay: Cancer cell panel, cell viability (resazurin): Prostate, PC3; conditions: Homo sapiens, PC-3, 72 hours, single agent, read-out: Example 3 IC50
Description: as §1, §2

MDA-MB-157 = assay: Cancer cell panel, cell viability (resazurin): Breast, MDA-MB-157; conditions: Homo sapiens; MDA-MB-157 (Breast), 72 hours, single agent; read-out: Example 3 IC50
Ramos = assay: Cancer cell panel, cell viability (resazurin): Burkitt's Lymphoma, Ramos; conditions: Homo sapiens, 72 hours, single agent, read-out: Example 3 IC50
Description: as §1, §2

DLD-1 = assay: Cancer cell panel, cell viability (resazurin): Colon, DLD-1; conditions: Homo sapiens; DLD-1 (Colon), 72 hours, single agent; read-out: Example 3 IC50
BT-474 = assay: Cancer cell panel, cell viability (resazurin): Breast, BT-474; conditions: Homo sapiens; BT-474 (Breast), 72 hours, single agent; read-out: Example 3 IC50
Description: as §1, §2

H1975 = assay: Cancer cell panel, cell viability (resazurin): NSCLC, H1975; conditions: Homo sapiens, NCI-H1975, 72 hours, single agent, read-out: Example 3 IC50
SK-MEL-3 = assay: Cancer cell panel, cell viability (resazurin): Melanoma, SK-MEL-3; conditions: Homo sapiens, SK-MEL3; SK-MEL-3 (Melanoma), 72 hours, single agent; read-out: Example 3 IC50
Daudi = assay: Cancer cell panel, cell viability (resazurin): Burkitt's Lymphoma, Daudi; conditions: Homo sapiens, 72 hours, single agent, read-out: Example 3 IC50
Caki-2 = assay: Cancer cell panel, cell viability (resazurin): Renal, Caki-2; conditions: Homo sapiens; Caki-2 (Renal), 72 hours, single agent; read-out: Example 3 IC50
Description: as §1, §2

SkBr-3 = assay: Cancer cell panel, cell viability (resazurin): Breast, SkBr-3; conditions: Homo sapiens, SK-BR-3; SkBr-3 (Breast), 72 hours, single agent; read-out: Example 3 IC50
Description: as §1, §2

A2780 = assay: Cancer cell panel, cell viability (resazurin): Ovarian, A2780; conditions: Homo sapiens, 72 hours, single agent, read-out: Example 3 IC50
Description: as §1, §2

SKOV-3 = assay: Cancer cell panel, cell viability (resazurin): Ovarian, SKOV-3; conditions: Homo sapiens, SK-OV-3; SKOV-3 (Ovarian), 72 hours, single agent; read-out: Example 3 IC50
Description: as §1, §2

MOLT4 = assay: Cancer cell panel, cell viability (resazurin): Leukemia, MOLT4; conditions: Homo sapiens, MOLT-4, 72 hours, single agent, read-out: Example 3 IC50
786-O = assay: Cancer cell panel, cell viability (resazurin): Renal, 786-O; conditions: Homo sapiens, 786-0; 786-O (Renal), 72 hours, single agent; read-out: Example 3 IC50
H1299 = assay: Cancer cell panel, cell viability (resazurin): NSCLC, H1299; conditions: Homo sapiens, NCI-H1299, 72 hours, single agent, read-out: Example 3 IC50
ZR-75-1 = assay: Cancer cell panel, cell viability (resazurin): Breast, ZR-75-1; conditions: Homo sapiens; ZR-75-1 (Breast), 72 hours, single agent; read-out: Example 3 IC50
MCF7 = assay: Cancer cell panel, cell viability (resazurin): Breast, MCF7; conditions: Homo sapiens, 72 hours, single agent, read-out: Example 3 IC50
Description: as §1, §2

ACHN = assay: Cancer cell panel, cell viability (resazurin): Renal, ACHN; conditions: Homo sapiens, 72 hours, single agent, read-out: Example 3 IC50
WM-115 = assay: Cancer cell panel, cell viability (resazurin): Melanoma, WM-115; conditions: Homo sapiens; WM-115 (Melanoma), 72 hours, single agent; read-out: Example 3 IC50
Mia-Paca-2 = assay: Cancer cell panel, cell viability (resazurin): Pancreatic, Mia-Paca-2; conditions: Homo sapiens; Mia-Paca-2 (Pancreatic), 72 hours, single agent; read-out: Example 3 IC50
Description: as §1, §2

H23 = assay: Cancer cell panel, cell viability (resazurin): NSCLC, H23; conditions: Homo sapiens, NCI-H23, 72 hours, single agent, read-out: Example 3 IC50
Description: as §1, §2

MeWO = assay: Cancer cell panel, cell viability (resazurin): Melanoma, MeWO; conditions: Homo sapiens, 72 hours, single agent, read-out: Example 3 IC50
SK-MEL-24 = assay: Cancer cell panel, cell viability (resazurin): Melanoma, SK-MEL-24; conditions: Homo sapiens; SK-MEL-24 (Melanoma), 72 hours, single agent; read-out: Example 3 IC50
T47D = assay: Cancer cell panel, cell viability (resazurin): Breast, T47D; conditions: Homo sapiens, 72 hours, single agent, read-out: Example 3 IC50
Raji = assay: Cancer cell panel, cell viability (resazurin): Burkitt's Lymphoma, Raji; conditions: Homo sapiens, 72 hours, single agent, read-out: Example 3 IC50
U266 = assay: Cancer cell panel, cell viability (resazurin): multiple myeloma, U266; conditions: Homo sapiens, U-266, 72 hours, single agent, read-out: Example 3 IC50
Description: as §1, §2

EOL-1 = assay: Cancer cell panel, cell viability (resazurin): Leukemia, EOL-1; conditions: Homo sapiens, EOL1; EOL-1 (Leukemia), 72 hours, single agent; read-out: Example 3 IC50
U87MG = assay: Cancer cell panel, cell viability (resazurin): Glioblastoma, U87MG; conditions: Homo sapiens, U-87 MG, 72 hours, single agent, read-out: Example 3 IC50
Description: as §1, §2

H2122 = assay: Cancer cell panel, cell viability (resazurin): NSCLC, H2122; conditions: Homo sapiens, NCI-H2122, 72 hours, single agent, read-out: Example 3 IC50
A549 = assay: Cancer cell panel, cell viability (resazurin): NSCLC, A549; conditions: Homo sapiens, 72 hours, single agent, read-out: Example 3 IC50
Colo205 = assay: Cancer cell panel, cell viability (resazurin): Colon, Colo205; conditions: Homo sapiens, COLO 205, 72 hours, single agent, read-out: Example 3 IC50

With `C[S@+]([O-])Cc1cc(Nc2cc(NC3CC3)n3ncc(C#N)c3n2)ccc1Cl` [Example 3, (S)(+)-5-((4-Chloro-3-((methylsulfinyl)methyl)phenyl)amino)-7-(cyclopropylamino)pyrazolo[1,5-a]pyrimidine-3-carbonitrile] the IC50 (NAMALWA) was 0.206 µM, the IC50 (MDA-MB-231) was 0.567 µM and the IC50 (Caki-1) was 0.171 µM. For the same compound, the IC50 (Panc-1) was 0.539 µM, the IC50 (PC3) was 0.112 µM and the IC50 (MDA-MB-157) was 0.447 µM. It also gave an IC50 (Ramos) of 0.312 µM, an IC50 (DLD-1) of 0.572 µM and an IC50 (BT-474) of 0.338 µM. It also gave an IC50 (H1975) of 0.387 µM, an IC50 (SK-MEL-3) of 0.429 µM and an IC50 (Daudi) of 0.217 µM. The IC50 (Caki-2) was 0.669 µM, the IC50 (SkBr-3) was 0.228 µM and the IC50 (A2780) was 0.527 µM. It also gave an IC50 (SKOV-3) of 1.38 µM, an IC50 (MOLT4) of 0.42 µM and an IC50 (786-O) of 2.62 µM. For the same compound, the IC50 (H1299) was 0.246 µM, the IC50 (ZR-75-1) was 0.323 µM and the IC50 (MCF7) was 1.82 µM. It also gave an IC50 (ACHN) of 0.409 µM, an IC50 (WM-115) of 0.286 µM and an IC50 (Mia-Paca-2) of 0.253 µM. For the same compound, the IC50 (H23) was 0.575 µM, the IC50 (MeWO) was 0.263 µM and the IC50 (SK-MEL-24) was 1.41 µM. The IC50 (T47D) was 0.861 µM, the IC50 (Raji) was 0.249 µM and the IC50 (U266) was over 10 µM. For the same compound, the IC50 (EOL-1) was 0.138 µM, the IC50 (U87MG) was 1.12 µM and the IC50 (H2122) was 0.227 µM. It also gave an IC50 (A549) of 1.67 µM and an IC50 (Colo205) of 1.12 µM.
